Results: patent US20240409536A1, “COMPOUNDS AND METHODS FOR MODULATING SPLICING” (REMIX THERAPEUTICS INC., priority 2021, published 2024)
Read-outs that look alike come from different tables or passages of the source.

Key:
SMN2 mRNA = experiment: Gene panel canonical junction qPCR assay, SMN2 CJ mRNA decrease; assay type: cell-based, human; conditions: decrease in CJ mRNA levels, read-out: SMN2 IC50
Method: (§1) Compounds described herein were used to modulate RNA transcript abundance in cells. The expression of a target mRNA was measured by detecting the formation of an exon-exon junction in the canonical transcript (CJ). A compound mediated exon-inclusion event was detected by observing an increase in formation of a new junction with an alternative exon (AJ). Real-time qPCR assays were used to detect these splicing switches and interrogate the potency of various compounds towards different target genes. A high-throughput real time quantitative PCR (RT-qPCR) assay was developed to measure these two isoforms of the mRNA (CJ and AJ) for exemplary genes, such as HTT, SMN2, and MYB, together with a control housekeeping gene, GAPDH or GUSB or PPIA, used for normalization. Briefly, the A673 or K562 cell line was treated with various compounds described herein (e.g., compounds of Formula (I), (I), or (III)). After treatment, the levels of the HTT, MYB, or SMN2 mRNA targets were determined from each sample of cell lysate by cDNA synthesis followed by qPCR.
(§2) The data analysis was performed by first determining the ΔCt vs the housekeeper gene. This ΔCt was then normalized against the DMSO control (ΔΔCt) and converted to RQ (relative quantification) using the 2^(−ΔΔCt) equation. The RQ were then converted to a percentage response by arbitrarily setting an assay window of 3.5 and 4.0 ΔCt for HTT-CJ and MYB-CJ respectively and an assay window of 9 and 3 ΔCt for HTT-AJ and MYB-AJ in 96 well format (50,000 K562 cells/well and 15,000 A673 cells per well) and an assay window of 3 and 4 ΔCt for HTT-CJ and MYB-CJ respectively and an assay window of 5 and 3 ΔCt for HTT-AJ and MYB-AJ respectively in 384 well format (8,000 K562 cells/well example). […] The percentage response was then fitted to the 4 parametric logistic equation to evaluate the concentration dependence of compound treatment. The increase in AJ mRNA is reported as AC50 (compound concentration having […] in AJ increase) while the decrease in CJ mRNA levels is reported as IC50 (compound concentration having 50) response in CJ decrease).
(§3) Additional studies were carried out for a larger panel of genes using the protocol provided above. The junction between flanking upstream and downstream exons was used to design canonical junction qPCR assays. At least one of the forward primer, reverse primer or the CY5-labeled 5′ nuclease probe (with 3′ quencher such as ZEN/Iowa Black FQ) was designed to overlap with the exon junction to capture the CJ mRNA transcript. BLAST was used to confirm the specificity of the probeset and parameters such as melting temperature, GC content, amplicon size, and primer dimer formation are considered during their design. Data for the decrease in CJ mRNA levels for four exemplary genes (HTT, SMN2, MYB, and Target C) analyzed in this panel are reported as IC50 (compound concentration having […] in CJ decrease).
(§4) A summary of the results from the panel is illustrated in Tables 5A and 51B, wherein “A” represents an IC50 of less than 100 nM; “B” represents an IC50 of between 100 nM and 1 μM; and “C” represents an IC50 of between 1 μM and 10 μM; and “D” represents an IC50 of greater than 10 μM.

HTT mRNA = experiment: Gene panel canonical junction qPCR assay, HTT CJ mRNA decrease; assay type: cell-based, human; conditions: Homo sapiens, decrease in CJ mRNA levels, read-out: HTT IC50
Method: as §1, §2, §3, §4

MYB mRNA = experiment: Gene panel canonical junction qPCR assay, MYB CJ mRNA decrease; assay type: cell-based, human; conditions: decrease in CJ mRNA levels, read-out: MYB IC50
Method: as §1, §2, §3, §4

Target C mRNA = experiment: Gene panel canonical junction qPCR assay, Target C CJ mRNA decrease; assay type: cell-based; conditions: Homo sapiens, decrease in CJ mRNA levels, read-out: Target C IC50
Method: as §1, §2, §3, §4

IC50 (SMN2 mRNA; Homo sapiens) [µM]	IC50 (HTT mRNA) [µM]	IC50 (MYB mRNA; Homo sapiens) [µM]	IC50 (Target C mRNA) [µM]	IC50 (SMN2 mRNA) [µM]	IC50 (MYB mRNA) [µM]	SMILES
> 10	> 10	> 10	> 10	–	–	Cc1cn2cc(NC(=O)c3sc(C4CCNCC4)c(Cl)c3Cl)cc(F)c2n1 [Compound 648]
1 to 10	< 0.1	< 0.1	0.1 to 1	–	–	Cc1cn2nc(NC(=O)c3sc(C4CCNCC4)cc3F)nc2c(C)n1 [Compound 665]
> 10	0.1 to 1	0.1 to 1	1 to 10	–	–	Cc1cn2cc(NC(=O)c3sc(C4CCNCC4)cc3Cl)cc(F)c2n1 [Compound 663]
> 10	> 10	1 to 10	> 10	–	–	Cc1cn2cc(NC(=O)c3sc(N4CC5(CN(C)C5)C4)cc3F)cc(F)c2n1 [Compound 608]
> 10	> 10	> 10	> 10	–	–	CC1=NC2C(F)=CC(NC(=O)c3sc(C4CCNCC4)cc3F)=CC2S1 (stereo not drawn) [Compound 658]
> 10	> 10	> 10	> 10	–	–	CC1=NC2C(F)=CC(NC(=O)c3sc(C4CCNCC4)cc3F)=CC2O1 (stereo not drawn) [Compound 657]
> 10	> 10	1 to 10	1 to 10	–	–	Cc1cn2cc(NC(=O)c3sc(N4CCN5CCCC5C4)cc3F)cc(F)c2n1 (stereo not drawn) [Compound 612]
0.1 to 1	1 to 10	0.1 to 1	1 to 10	–	–	Cc1cn2cc(NC(=O)c3sc(N4CCNC(C)C4)cc3F)c(C)cc2n1 (stereo not drawn) [Compound 639]
> 10	> 10	0.1 to 1	> 10	–	–	Cc1cn2nc(NC(=O)c3sc(N4CCNC(C)C4)cc3F)nc2c(C)n1 (stereo not drawn) [Compound 642]
> 10	> 10	0.1 to 1	1 to 10	–	–	Cc1cn2cc(NC(=O)c3sc(N4CCC(N(C)C)C4)cc3F)cc(F)c2n1 (stereo not drawn) [Compound 611]
> 10	> 10	> 10	> 10	–	–	COc1cc(N2CCNCC2=O)sc1C(=O)Nc1cc(F)c2nc(C)cn2c1 [Compound 662]
0.1 to 1	0.1 to 1	< 0.1	0.1 to 1	–	–	CCN1CCC(c2cc(F)c(C(=O)Nc3cc(F)c4nc(C)cn4c3)s2)CC1 [Compound 619]
> 10	> 10	0.1 to 1	> 10	–	–	Cc1cn2cc(NC(=O)c3sc(N4CCN(C)C(C)C4)cc3F)cc(F)c2n1 (stereo not drawn) [Compound 602]
1 to 10	0.1 to 1	0.1 to 1	1 to 10	–	–	Cc1cn2cc(NC(=O)c3sc(N4CCNC(C)C4)c(Cl)c3Cl)cc(F)c2n1 (stereo not drawn) [Compound 659]
–	1 to 10	–	1 to 10	1 to 10	1 to 10	Cc1cn2cc(NC(=O)c3sc(C4CCNCC4)cc3F)cc(F)c2n1 [Compound 617]
> 10	> 10	> 10	> 10	–	–	Cc1nc2c(F)cc(NC(=O)c3sc(N4CCNC(C)C4)cc3F)cc2o1 (stereo not drawn) [Compound 637]
> 10	> 10	1 to 10	> 10	–	–	Cc1cn2cc(NC(=O)c3sc(N4CCNC(C)(C)C4)cc3F)cc(F)c2n1 [Compound 604]
1 to 10	1 to 10	0.1 to 1	1 to 10	–	–	Cc1cn2cc(NC(=O)c3sc(N4CCC(N5CCCC5)C4)cc3F)cc(F)c2n1 (stereo not drawn) [Compound 609]
1 to 10	1 to 10	1 to 10	1 to 10	–	–	CC1CC(c2cc(F)c(C(=O)Nc3cc(F)c4cn(C)nc4c3)s2)CCN1 (stereo not drawn) [Compound 625]
> 10	> 10	1 to 10	1 to 10	–	–	Cc1cn2cc(NC(=O)c3sc(N4CC5(CNC5)C4)cc3F)cc(F)c2n1 [Compound 607]

SMILES	IC50 (SMN2 mRNA; Homo sapiens) [µM]	IC50 (HTT mRNA) [µM]	IC50 (MYB mRNA; Homo sapiens) [µM]	IC50 (Target C mRNA) [µM]	IC50 (SMN2 mRNA) [µM]	IC50 (MYB mRNA) [µM]
Cc1cn2cc(NC(=O)c3sc(N(C)C4CC(C)(C)NC(C)(C)C4)cc3F)cc(F)c2n1 [Compound 622]	1 to 10	0.1 to 1	< 0.1	0.1 to 1	–	–
